# Assay results taken from US5015742A, “Synthesis and elucidation of azamitosene and iminoazamitosene” (Arizona Board of Regents, priority 1990, dated 1991).
# Entries after “also recorded” stand apart in the source; their conditions may differ.
# How the values were obtained:
# [1] = Kinetics of hydrolysis and syn/anti isomerization in aqueous buffer; assay type: physicochemical; details: for pKa: aqueous buffer
# Source text: Iminoquinone Fate in Aqueous Buffers. […] Outlined in Scheme 4 below, are the pertinent equilibria and hydrolytic reactions of 2a in aqueous buffer. Above pH 7, the predominate reaction is equilibrium formation of a syn/anti mixture of 2a by general acid/base catalyzed processes. Much below pH 7, the predominate reaction is acid-catalyzed hydrolysis of 2a to the corresponding quinone 1a.
# The studies which led to the mechanism outlined in Scheme 4 will now be described. Both hydrolysis and the equilibrium isomerization of pure syn 2a or pure anti 2a are associated with an absorbance change at 320 nm. Plots of absorbance vs time obeyed a first-order rate law over the entire pH range studied. The kobsd values were dependent on the concentration of the buffers employed to hold pH over the range of pH=3 to 9. Lyate-dependent values of kobsd (klyate) were obtained by measuring kobsd values over a 10-fold range of buffer concentration at constant pH and then extrapolating to the klyate value at zero buffer concentration.
# The rate law for the reaction of pure syn 2a, based on the mechanism shown in Scheme 4 below, is provided in Equation 1: [formula] wherein: k1, k-1, k2, k3, Ka4 and Ka5 are constants found in Scheme 4 and aH is the proton activity determined with a pH electrode. The first term of equation 1 pertains to the hydrolysis of 2aH^2+ under the conditions aH <Ka5, the second term pertains to hydrolysis of 2aH and third term pertains to the syn/anti equilibration. […] Consistent with the postulated mechanism, the kinetically-obtained value of pKa4 approximates the value obtained by spectrophotometric titration (2.6±0.3).
# (§1) Kinetic Studies of Hydrolysis. The hydrolytic studies of 2a and the reoxidation studies of 19 and 20 were carried out in aerobic aqueous buffer at 30.0°±0.2° C. A dimethyl sulfoxide stock of the compound to be studied was prepared fresh and 50 μl of this stock was added to 2.95 mL of buffer. In the cases of 19 and 20, the dimethyl sulfoxide stock was kept under a blanket of argon. The absorbance vs time data were obtained on a Perkin-Elmer 559 or a Lambda-3 UV-vis spectrophotometer and fit to a first-order rate law.
# [2] = pKa by spectrophotometric titration; assay type: physicochemical; details: water, 1.0 m kcl
# Method: pKa constants were determined by spectrophotometric titration in μ=1.0 (KCl) aerobic aqueous solvent at 30°±0.2° C. with a Cary 15 outfitted with a titration cell. Acid dissociations from hydroquinones in strong base were measured under an argon atmosphere with Thunberg cuvettes. Details of the methodoloqy employed are found in a previous publication.
# [3] = Two-electron reduction potentials by cyclic voltammetry and Nernst fit
# Method: Quinone 1a and iminoquinone 2a two-electron reduction potentials were determined in anaerobic aqueous buffers (μ=1, NaClO4) at 25° C. over the pH range -1 to 10 employing conventional cyclic voltammetry. The working electrode was a graphite mull, the auxillary electrode was platinum, and the reference couple was Ag/AgCl.
# The pKa values, with error limits, were determined. spectrophotometrically.
# The determination of Em values was carried out with a BAS 27 voltammograph. Measurements were carried out in μ=1.0 (NaClO4) aqueous buffer at 25°-26° C. under an atmosphere of argon with a BAS Ag/AgCl gel electrode as reference. […] The midpoint potential Em was determined from the average of the anodic (Ep,a) and cathodic (Ep,c) potentials.
# For each of the redox couples, 1a/20 and 2a/19, >20 Em determinations were made over the pH range studied. For each Em value of a couple, and Eo value was calculated from the Nernst equation substituted with the acid dissociation constants in Table I and the proton activity determined with a pH meter. The average of all Eo determinations was then substituted into the Nernst equation, with which the solid curve for the couple was generated.
# [4] = test system: fresh human colon tumors; assay: Antitumor activity in fresh human colon tumors; assay type: cell-based
# [5] = test system: cloned human ovarian cancer cell lines; assay: Antitumor activity in cloned human ovarian cancer cell lines; assay type: cell-based
# [6] = test system: fresh human ovarian tumors; assay: Antitumor activity in fresh human ovarian tumors; assay type: cell-based
# [7] = test system: cloned human colon cancer cell lines; assay: Antitumor activity in cloned human colon cancer cell lines; assay type: cell-based
# [8] = syn/anti isomerization equilibrium (product study, thermodynamic cycles, NMR); assay type: physicochemical; details: for K for syn/anti isomerization: aqueous buffer
# Method: Below pH 7, the preparative reaction of pure syn 2a afforded a mixture of isomers; [syn 2a]/[anti 2a]=0.7 by ^1 H NMR. [drawing 5]
# The K value (~1) for syn/anti isomerization of 2a in aqueous buffer was assessed from […] thermodynamic cycles and from a product study. The results of the product study indicate K=0.7. The two thermodynamic cycles shown in Scheme 4 indicate K=1 to 2. These thermodynamic cycles were constructed by considering that protonation of syn/anti 2a provides the same cationic species 2aH^+ and that acid dissociation from syn/anti 2a probably provides the same anionic species 2aH^-.
# The thermoneutral syn/anti isomerization in aqueous buffer requires that the imino proton of anti 2a hydrogen bond to the nitrogen of the enolized acetamido group.
# Product Isolation of syn 2a Reaction at pH 8. To a solution of 15 mg (0.058 mmol) of syn 2a in 1 mL of dimethyl sulfoxide was added 4 mL of pH 8 phosphate buffer. The reaction mixture was stirred at room temperature for 48 hours and then diluted with 10 mL of water and extracted 3× with 20 mL portions of chloroform. Concentration of the dried extracts (sodium sulfate) afforded 12 mg (80%) of a mixture of isomers: [syn/anti]=0.7 by ^1 H NMR.
# [9] = Aerobic oxidation (oxygen reactivity) of reduced species in aqueous buffer; assay type: physicochemical
# Method: The oxygen reactivity of 19 and 20 was studied in aerobic buffers (μ=1.0, KCl) at 30° C. Both of these species are converted to the corresponding oxidized analogues, 2a and 1a, by first-order processes. Isolation studies and UV-visible spectra of completed reactions confirmed the formation of both analogues. As expected from the relative reduction potentials, the oxidation of 19 is slow enough to be studied up to pH=11 whereas the oxidation of 20 occurs at stopped-flow rates much above neutrality.
# The profile for the oxidation of 19 is consistent with oxidation of both the neutral species (19) and the monoprotonated species (19H^+), see Scheme 5, below. [drawing 11] The rate law for the mechanism in Scheme 5 is found in Equation 5. […] The solid curve of Plot B in FIG. 3 was computer generated with equation 5 using the values of the constants shown in Scheme 5. Consistent with the proposed mechanism, the kinetically-determined value of Ka is nearly the same as the value determined spectrophotometrically (9.44, entry 11 of Table I). The greater oxygen reactivity of 19, compared to 19H^+, is consistent with the decreasing Em values (i.e., decreasing stability of the reduced species) observed in the Nernst Fit (Plot B, FIG. 2) at pH values>6.
# as §1
# [10] = comparison or calibration value; cited from earlier work
# [11] = N(4)-protonated species, 30° C., μ = 1.0 (KCl)
# [12] = amide proton, 30° C., μ = 1.0 (KCl)
# [13] = buffer-catalyzed syn/anti isomerization
compound,measurement,setting,value
"CC(=O)NC1=C(C)C(=O)c2c(nc3n2CCC3OC(C)=O)C1=N (racemic) [2b, syn/anti 6-Acetamido-5-imino-7-methyl-2,3-dihydro-1H-pyrrolo[1,2-a]benzimidazol-8-one-3-Acetate]",hydrolytic stability below pH 6,[1],extremely slow
"CC(=O)NC1=C(C)C(=O)c2c(nc3n2CCC3)C1=O [1a, 6-Acetamido-7-methyl-2,3-dihydro-1H-pyrrolo [1,2-a]benzimidazole-5,8-dione]",pKa,[2]; [11],1.54 ± 0.06
same,pKa,[2]; [12],11.3 ± 0.13
same,"hydrolytic stability, entire pH range studied","[1]; aqueous solution, pH range -1 to 10",hydrolytically stable
same,Eo (reduction potential at pH=0),"[3]; couple 1a/20, Nernst fit",612 mV (NHE)
"CC(=O)OC1CCn2c1nc1c2C(=O)C(C)=C(N2CC2)C1=O (centres unmarked) [1c, 6-(N-aziridinyl)-7-methyl-2,3-dihydro-1H-pyrrolo [1,2-a]benzimidazole 5,8-dione-3-Acetate]",antitumor activity,[4],potent antitumor agents
same,antitumor activity,[5],potent antitumor agents
same,antitumor activity,[6],potent antitumor agents
same,antitumor activity,[7],potent antitumor agents
"CC1=C(N2CC2)C(=O)c2nc3n(c2C1=O)CCC3OC(N)=O (centres unmarked) [1d, 6-N-Aziridinyl-7-methyl-2,3-dihydro-1H-pyrrolo [1,2-a]benzimidazole-5,8-dione-3-Carbamate]",antitumor activity,[4],potent antitumor agents
same,antitumor activity,[5],potent antitumor agents
same,antitumor activity,[6],potent antitumor agents
same,antitumor activity,[7],potent antitumor agents
"CC(=O)NC1=C(C)C(=O)c2c(nc3n2CCC3)C1=N [2a, syn/anti 6-Acetamido-5-imino-7-methyl-2,3-dihydro-1H-pyrrolo[1,2-a]benzimidazol-8-one]",pKa,[2]; [11],< 0
same,pKa,[2]; [12],11.24 ± 0.01
same,pKa,"[2]; protonated imino group (2aH^+), spectrophotometric, 30° C., μ = 1.0 (KCl)",2.6 ± 0.3
same,K for syn/anti isomerization,[8]; overall,~ 1
same,K for syn/anti isomerization,[8]; product study,0.7
same,hydrolytic stability much below pH 6 / in acid,"[1]; acid, much below pH 6",rapidly hydrolyses; also recorded: rapidly hydrolyzed
same,pKa,"[1]; acid dissociation of 2aH^+ (protonated imine), pH profile FIG. 1, read-out: pKa",~2.5
same,pKa,"[1]; acid dissociation of diprotonated 2a, pH profile FIG. 1, read-out: pKa",< 0
same,pKa,"[1]; kinetically obtained, fit of equation 1, 30° C., read-out: pKa4",3.4
same,hydrolytic stability below pH 6,[1],extremely slow
same,k(acetate),[1]; [13],0.0045 M⁻¹ s⁻¹
same,k(dibasic phosphate),[1]; [13],0.000171 M⁻¹ s⁻¹
same,k(monobasic phosphate),[1]; [13],0.000421 M⁻¹ s⁻¹
same,kga for acetic acid,"[1]; general acid catalyzed hydrolysis, pH 3.5 to 6",0.003 M⁻¹ s⁻¹
same,k3/Ka5,"[1]; hydrolysis of diprotonated 2a, fit of equation 1, 30° C.",0.045 M⁻¹ s⁻¹
same,k2 (rate of water addition to 2aH^+),"[1]; hydrolysis of monoprotonated 2a, 30° C.",0.048 s⁻¹
same,hydrolytic stability at pH values ≥7,[1]; pH ≥7,hydrolytically stable
same,hydrolysis rate at pH 7.0,"[1]; pH=7.0, worked out from pKa and k2",1.0×10^-6 s^-1
same,k1 + k-1,"[1]; syn/anti equilibration, lyate term, above pH 7, 30° C.",1.03e-05 s⁻¹
same,Eo (reduction potential at pH=0),"[3]; couple 2a/19, Nernst fit",1.11 V (NHE)
same,E values of syn and anti isomers,"[3]; cyclic voltammetry, syn versus anti",identical E values for both isomers
same,reduction potential versus quinone,[3]; iminoquinone compared with quinone analogue,much higher reduction potentials
"CC(=O)Nc1c(C)c(O)c2c(nc3n2CCC3)c1N [compound 19, 6-Acetamido-5-amino-8-hydroxy-7-methyl-2,3-dihydro-1H-pyrrolo[1,2-a]benzimidazole]",pKa,[2]; [11],3.67 ± 0.16
same,pKa,"[2]; dissociation of hydroxyl, amide and amine protons: 19^2- to 19^3-, approximated",> 15
same,pKa,"[2]; dissociation of hydroxyl, amide and amine protons: 19^- to 19^2-, approximated",> 15
same,pKa,"[2]; dissociation of hydroxyl, amide and amine protons: 19 to 19^-, approximated",> 15
same,pKa,"[2]; protonated 5-amino group (19H^+), 30° C., μ = 1.0 (KCl)",9.44
same,reoxidation rate relative to 20,[9]; physiological pH,two orders of magnitude slower
same,fold slower oxidation than 20,[9]; physiological pH (7.4),about 100 ×
same,stability of reduced species in acid,[3]; acid solution,acid-stable
CC(=O)Nc1c(C)c(O)c2c(nc3n2CCC3)c1O [compound 20],pKa,"[2]; 5-OH of hydroquinone, 30° C., μ = 1.0 (KCl)",11.1
same,pKa,"[2]; 8-OH of hydroquinone (20^- to 20^2-), 30° C., μ = 1.0 (KCl), approximated",> 14
same,pKa,[2]; [11],6.02 ± 0.2
same,pKa,[2]; [12],> 14
same,oxidation rate above pH 7.5,[9]; above pH 7.5,too fast to measure
same,oxidation rate of 20^-,[9]; assuming rate-determining oxidation of 20^-,1566 s⁻¹
"N#CC1=C(C#N)C(=O)C(Cl)=C(Cl)C1=O [dichlorodicyanoquinone (DDQ), dichlorodicyanoquinone]",Eo,[10],"946 mV, NHE"
"CC(=O)NC1=C(C)C(=O)c2c(nc3n2CCC3)C1=N [syn 2a, 6-Acetamido-5-imino-7-methyl-2,3-dihydro-1H-pyrrolo[1,2-a]benzimidazol-8-one]",K for syn/anti equilibration,[8]; dimethyl sulfoxide-d6,15
same,[syn]/[anti] ratio,"[8]; preparative reaction of pure syn 2a, ^1 H NMR, pH 8 phosphate buffer, 48 hours",0.7
same,"completed hydrolysis, product by UV-visible spectra",[1]; pH 0 to pH 6,quantitative formation of 1a
